Assay results from PMC8273890, “Development of [^18F]AldoView as the First Highly Selective Aldosterone Synthase PET Tracer for Imaging of Primary Hyperaldosteronism” (Journal of Medicinal Chemistry, 2021).
pIC50: −log10 of the molar value. “Also recorded” adds a separate entry of the source.

Assays:
human CYP11B2 [1] = assay: Inhibition of human CYP11B2 (aldosterone synthase), literature values; type: biochemical; conditions: human isoforms
[2] = Dynamic PET/CT imaging in mice; type: in vivo, female BALB/c mice; conditions: PET
Protocol: Dynamic PET imaging was performed using a nanoScan PET-CT system manufactured by Mediso (Medical Imaging Systems, Budapest, Hungary). Mice (n = 6) were anaesthetized with isoflurane (2% v/v in oxygen) and placed on the preheated bed of the scanner (set at 38 °C). [^18F]AldoView (7.3 ± 4.1 MBq, formulated in 100–150 μl saline containing 5% ethanol) was injected into the tail vein via intravenous cannulation. After injection, the catheter was carefully removed. The breathing rate and body temperature of the animals were closely monitored during the dynamic PET scans and, if necessary, the isoflurane dose was adjusted. Scans were recorded over 1 h, and the animals were subsequently sacrificed by cervical dislocation. Quantification of the tissue uptake (in % ID/g) was carried out based on the regions of interest manually drawn on the CT using the software package VivoQuant 1.23 (inviCRO, Boston, USA).

CYP11B2 = target: T1, CYP11B2 (Homo sapiens, UniProt P19099); assay: Quantitative phosphorimaging (in vitro autoradiography) in human adrenal tissue sections; type: binding; conditions: for NSB (non-specific binding): with 25 μM AldoView
T1 construct: from tissue
T1 sequence (P19099 25-503): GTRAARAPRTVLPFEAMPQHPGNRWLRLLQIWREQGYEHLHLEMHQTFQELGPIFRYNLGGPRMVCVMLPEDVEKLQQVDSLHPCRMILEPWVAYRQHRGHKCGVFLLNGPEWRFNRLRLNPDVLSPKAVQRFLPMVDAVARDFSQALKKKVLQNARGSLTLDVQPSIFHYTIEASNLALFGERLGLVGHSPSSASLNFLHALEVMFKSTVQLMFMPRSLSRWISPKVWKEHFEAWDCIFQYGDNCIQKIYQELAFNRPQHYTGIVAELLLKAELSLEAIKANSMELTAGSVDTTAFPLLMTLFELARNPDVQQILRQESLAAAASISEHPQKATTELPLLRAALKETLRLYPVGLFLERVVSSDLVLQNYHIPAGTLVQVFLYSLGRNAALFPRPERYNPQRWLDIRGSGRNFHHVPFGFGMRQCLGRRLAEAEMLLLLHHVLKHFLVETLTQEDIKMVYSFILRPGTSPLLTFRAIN
From the text: Adrenal surgical specimens were obtained from patients with Conn’s disease, Cushing’s disease, pheochromocytoma, and adrenal tumors, who had consented to the use of their tissue for research applications. Ethical approval was obtained from the UK Multicentre Research Ethics Committee (06/Q0104/133). Following routine adrenalectomy, surgical specimens were immediately flash frozen using a slurry of isopentane and dry ice. Cryosections (20 μm) obtained from the frozen tissue blocks were mounted on lysine-coated microscope slides and stored at −80 °C.
Thawed tissue sections on microscopic slides were dipped in pentane for 5 s to degrease the tissue. This step was required to avoid nonspecific binding (NSB), in particular to medullar fat. Tissue sections were subsequently rehydrated in tris-buffered saline (TBS; pH = 7.5) for 30 min and subsequently incubated with a solution of [^18F]AldoView in TBS for 60 min (1 mL per slide). For determination of the total binding (TB), [^18F]AldoView was diluted with TBS to a concentration of 2 MBq/mL. For the determination of NSB, a solution of the nonradioactive reference compound in ethanol (3.5 mM) was added to a solution of [^18F]AldoView in TBS and diluted to give a final AldoView concentration of 25 μM and a final [^18F]AldoView concentration of 2 MBq/mL. After incubation, unbound [^18F]AldoView was removed by washing the sections in ice-cold TBS (three times for 5 min) and water (1 min). Internal standards were prepared by serial dilution of the [^18F]AldoView solution used for determination of the TB. Tissue sections and internal standards absorbed on filter paper were left to air-dry and subsequently exposed to a phosphor screen (BAS-IP MS; GE Healthcare) overnight. Phosphorimaging was performed on a Typhoon Trio scanner (GE Healthcare). All phosphorimaging experiments were performed in at least three adjacent tissue sections per case, tissue block, and experimental condition (TB, NSB). Quantification of phosphor images was performed using the analysis software ImageJ (version 1.48).[28] Determination of TB and NSB (in kBq/cm^2; Table S1) was based on correlation curves generated from the internal standards. The specific [^18F]AldoView binding was calculated as the difference between TB and NSB.

human CYP11B2 [3] = system: human CYP11B2; parameters: method as in PMID 26005536; conditions: cited from earlier work
hCYP11B1 = system: hCYP11B1; parameters: method as in PMID 26005536; conditions: read-out: IC50 CYP11B1; cited from earlier work
[4] = specimen 1b (high), case 1, PHA
[5] = specimen 2b (high), case 2, PHA
[6] = specimen 2c (high), case 2, PHA
[7] = specimen 3b (high), case 3, PHA
[8] = specimen 6a, case 6, pheochromocytoma
[9] = specimen 6b, case 6, pheochromocytoma
[10] = specimen 7a, case 7, adrenal tumor

Fc1cc2nc(-c3cncc([18F])c3)n(C3CC3)c2cc1F [[^18F]AldoView]
hCYP11B2 selectivity (B2/B1 ratio) (human CYP11B2 [1]): 93
time for liver activity to decrease to half the peak value [2]: ≤ 30 min
peak liver activity ([2]; at 6 min postinjection): 48 ± 11 % ID/g
level of activity in muscle ([2]; knee extensors, throughout scan (1 h)): < 1.5 % ID/g
time of peak liver activity ([2]; postinjection): 6 min
tracer binding in specimens from control subjects (CYP11B2; n = 3): 2.6 ± 1.8 kBq/cm^2
tracer binding in CYP11B2-negative areas in specimens from patients with PHA (CYP11B2; n = 4): 3.2 ± 1.1 kBq/cm^2
SB (specific binding) (CYP11B2; specimen 1a, case 1, PHA): 19.7 kBq/cm2
TB (total binding) (CYP11B2; specimen 1a, case 1, PHA): 20.1 kBq/cm2
NSB (non-specific binding) (CYP11B2; specimen 1a, case 1, PHA): 0.4 kBq/cm2
SB (specific binding) (CYP11B2; [4]): 8.6 kBq/cm2
TB (total binding) (CYP11B2; [4]): 17.9 kBq/cm2
NSB (non-specific binding) (CYP11B2; [4]): 9.3 kBq/cm2
SB (specific binding) (CYP11B2; specimen 1b (low), case 1, PHA): 4.8 kBq/cm2
TB (total binding) (CYP11B2; specimen 1b (low), case 1, PHA): 5.6 kBq/cm2
NSB (non-specific binding) (CYP11B2; specimen 1b (low), case 1, PHA): 0.9 kBq/cm2
SB (specific binding) (CYP11B2; specimen 2a, case 2, PHA): 2.5 kBq/cm2
TB (total binding) (CYP11B2; specimen 2a, case 2, PHA): 2.8 kBq/cm2
NSB (non-specific binding) (CYP11B2; specimen 2a, case 2, PHA): 0.3 kBq/cm2
SB (specific binding) (CYP11B2; [5]): 18.9 kBq/cm2
TB (total binding) (CYP11B2; [5]): 20.2 kBq/cm2
NSB (non-specific binding) (CYP11B2; [5]): 1.3 kBq/cm2
SB (specific binding) (CYP11B2; specimen 2b (low), case 2, PHA): 2.1 kBq/cm2
TB (total binding) (CYP11B2; specimen 2b (low), case 2, PHA): 2.4 kBq/cm2
NSB (non-specific binding) (CYP11B2; specimen 2b (low), case 2, PHA): 0.3 kBq/cm2
SB (specific binding) (CYP11B2; [6]): 19.1 kBq/cm2
TB (total binding) (CYP11B2; [6]): 20.0 kBq/cm2
NSB (non-specific binding) (CYP11B2; [6]): 1.0 kBq/cm2
SB (specific binding) (CYP11B2; specimen 2c (low), case 2, PHA): 3.0 kBq/cm2
TB (total binding) (CYP11B2; specimen 2c (low), case 2, PHA): 3.3 kBq/cm2
NSB (non-specific binding) (CYP11B2; specimen 2c (low), case 2, PHA): 0.3 kBq/cm2
SB (specific binding) (CYP11B2; specimen 3a, case 3, PHA): 6.8 kBq/cm2
TB (total binding) (CYP11B2; specimen 3a, case 3, PHA): 7.6 kBq/cm2
NSB (non-specific binding) (CYP11B2; specimen 3a, case 3, PHA): 0.7 kBq/cm2
SB (specific binding) (CYP11B2; [7]): 10.4 kBq/cm2
TB (total binding) (CYP11B2; [7]): 15.5 kBq/cm2
NSB (non-specific binding) (CYP11B2; [7]): 5.1 kBq/cm2
SB (specific binding) (CYP11B2; specimen 3b (low), case 3, PHA): 3.0 kBq/cm2
TB (total binding) (CYP11B2; specimen 3b (low), case 3, PHA): 4.3 kBq/cm2
NSB (non-specific binding) (CYP11B2; specimen 3b (low), case 3, PHA): 1.2 kBq/cm2
SB (specific binding) (CYP11B2; specimen 4a, case 4, PHA): 3.6 kBq/cm2
TB (total binding) (CYP11B2; specimen 4a, case 4, PHA): 4.2 kBq/cm2
NSB (non-specific binding) (CYP11B2; specimen 4a, case 4, PHA): 0.6 kBq/cm2
SB (specific binding) (CYP11B2; specimen 4b, case 4, PHA): 16.5 kBq/cm2
TB (total binding) (CYP11B2; specimen 4b, case 4, PHA): 18.4 kBq/cm2
NSB (non-specific binding) (CYP11B2; specimen 4b, case 4, PHA): 1.9 kBq/cm2
SB (specific binding) (CYP11B2; specimen 5a, case 5, PHA): 5.1 kBq/cm2
TB (total binding) (CYP11B2; specimen 5a, case 5, PHA): 5.9 kBq/cm2
NSB (non-specific binding) (CYP11B2; specimen 5a, case 5, PHA): 0.8 kBq/cm2
SB (specific binding) (CYP11B2; specimen 5b, case 5, PHA): 4.2 kBq/cm2
TB (total binding) (CYP11B2; specimen 5b, case 5, PHA): 5.1 kBq/cm2
NSB (non-specific binding) (CYP11B2; specimen 5b, case 5, PHA): 0.9 kBq/cm2
SB (specific binding) (CYP11B2; specimen 5c, case 5, PHA): 3.5 kBq/cm2
TB (total binding) (CYP11B2; specimen 5c, case 5, PHA): 4.5 kBq/cm2
NSB (non-specific binding) (CYP11B2; specimen 5c, case 5, PHA): 1.0 kBq/cm2
SB (specific binding) (CYP11B2; [8]): < LOQ; also recorded: limit of quantification
TB (total binding) (CYP11B2; [8]): < LOQ
NSB (non-specific binding) (CYP11B2; [8]): < LOQ
SB (specific binding) (CYP11B2; [9]): 4.0 kBq/cm2
TB (total binding) (CYP11B2; [9]): 5.3 kBq/cm2
NSB (non-specific binding) (CYP11B2; [9]): 1.3 kBq/cm2
SB (specific binding) (CYP11B2; [10]): 0.5 kBq/cm2
TB (total binding) (CYP11B2; [10]): 1.7 kBq/cm2
NSB (non-specific binding) (CYP11B2; [10]): 1.2 kBq/cm2
SB (specific binding) (CYP11B2; specimen 8a, case 8, Cushing's): 3.2 kBq/cm2
TB (total binding) (CYP11B2; specimen 8a, case 8, Cushing's): 3.7 kBq/cm2
NSB (non-specific binding) (CYP11B2; specimen 8a, case 8, Cushing's): 0.5 kBq/cm2
pIC50 (human CYP11B2 [3]): 8.33
pIC50 (hCYP11B1): 6.36
